One experiment has as its system SB.msgc-1. As to the kind of experiment: AC50 for growth inhibition (viability) (log10 M); higher = less potent. The settings on record: SB.msgc-1 (sporadic gastric cancer). The method in brief: (§1)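 In 1536-well plates, each well held 500 patient-derived gastric cancer cells (hereditary or sporadic) in 5 μL medium. Compound in DMSO, 23 nL per well, was pinned in 11 threefold dilutions starting at a final 46 μM. Following 48 h of exposure, cells had CellTiter-Glo for 30 min at room temperature before ViewLux luminescence reading. Only high-quality curve classes from four-parameter fits of DMSO-normalised viability gave the log half-maximal activity concentration.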

The next experiment deals with SB.mhdgc-1. The experiment is described as above. Particulars: SB.mhdgc-1 (hereditary c.1380delA CDH1 gastric cancer). The method in brief:
as §1

Structures can show the parent of a compound that is named as a salt.

`CN(C)Cc1c(C(=O)NCCOc2ccc(C(=O)NO)cc2)oc2ccccc12` [Abexinostat]: the “AC50 for growth inhibition (log10 M)” value with SB.msgc-1 was -5.93; in the experiment on SB.mhdgc-1 it was -5.13.

As to `CCOC(=O)\C1=C(/C)N\C2=C(C1C3=CC=C(C=C3)C4=CC=CC=C4)\C(=O)CC(C)(C)C2` (stereo not given) [ITD-1], the “AC50 for growth inhibition (log10 M)” value is -4.73 in the experiment on SB.msgc-1 and -4.83 in the experiment on SB.mhdgc-1.

Take `CC(C)C[C@H](NC(=O)CNC(=O)c1cc(Cl)ccc1Cl)B1OC(=O)CC(CC(=O)O)(C(=O)O)O1` (stereo not given in full) [Ixazomib citrate]: the “AC50 for growth inhibition (log10 M)” value with SB.msgc-1 was -7.23; in the experiment on SB.mhdgc-1, -7.03.

As to `CN(c1ncccc1CNc1nc(Nc2ccc3c(c2)CC(=O)N3)ncc1C(F)(F)F)[S+](C)(=O)[O-]`, the “AC50 for growth inhibition (log10 M)” value was -5.13 in the experiment on SB.msgc-1 and -5.18 with SB.mhdgc-1.

As to `C=C(C)[C@H]1Cc2c(ccc3c2O[C@@H]2COc4cc(OC)c(OC)cc4[C@@H]2C3=O)O1` [Rotenone], the “AC50 for growth inhibition (log10 M)” value is -6.33 in the experiment with SB.msgc-1 and -5.38 in the experiment on SB.mhdgc-1.

In the case of `CC(C)CNc1ccnc(NCc2csc(-c3ccccc3)n2)n1` [KHS101], the “AC50 for growth inhibition (log10 M)” value with SB.msgc-1 and in the experiment with SB.mhdgc-1 was -4.78 in each case.

Turning to `COc1cc(O)c2c(c1)C1OC1C[C@H](O)[C@H](O)C(=O)/C=C\C[C@H](C)OC2=O` (stereo not given in full) [Hypothemycin], the entries for the “AC50 for growth inhibition (log10 M)” value in the experiment with SB.msgc-1 and with SB.mhdgc-1 were -4.83 and -5.03, respectively.

Regarding `CN(C)[S+](=O)([O-])c1ccc2c(c1)C(=Cc1cc3c([nH]1)CCCC3)C(=O)N2` [SU-6656], the results for the “AC50 for growth inhibition (log10 M)” value with SB.msgc-1 and in the experiment with SB.mhdgc-1 were -5.43 and -5.28, respectively.

With `C[C@H](NC(=O)/C(C#N)=C/c1cccc(Br)n1)c1ccccc1` [WP-1066], the “AC50 for growth inhibition (log10 M)” value in the experiment on SB.msgc-1 is -5.48; in the experiment on SB.mhdgc-1 it was -5.43.

As to `COC/1=C/[C@@H]2[C@@H]3CC4=C(C(=C(OC)C=C4)O)[C@]2(CCN3C)CC1=O` [Sinomenine], the “AC50 for growth inhibition (log10 M)” value was -6.03 with SB.msgc-1 and -6.33 with SB.mhdgc-1.

As to `N[S+]([O-])(=O)C1=CC=C(NC/2=C/C(=O)C3=CC=CC=C3C2=O)C=C1`, the “AC50 for growth inhibition (log10 M)” value in the experiment on SB.msgc-1 is -4.98; in the experiment with SB.mhdgc-1 it was -6.23.

For `O=[N+]([O-])c1cnc(Sc2nnc(O)n2-c2ccc3c(c2)OCCO3)s1` [BI-78D3], the “AC50 for growth inhibition (log10 M)” value in the experiment with SB.msgc-1 was -4.83; in the experiment with SB.mhdgc-1, -5.43.

Turning to `CC(=O)Oc1ccccc1C(=O)Nc1ncc([N+](=O)[O-])s1` [Nitazoxanide], the “AC50 for growth inhibition (log10 M)” value in the experiment with SB.msgc-1 and in the experiment with SB.mhdgc-1 was -4.72 throughout.

Take `CO[C@H]1CCC(O[C@H]2C[C@H]([C@]3(C)CC[C@]4(C[C@H](O)[C@@H](C)[C@@H]([C@@H](C)/C=C(\C)C(=O)[C@H](C)C[C@H](C)C(=O)[O][Na])O4)O3)O[C@]3(O[C@@H]([C@H]4O[C@@](O)(CO)[C@H](C)C[C@@H]4C)C[C@@H]3C)[C@@H]2C)O[C@@H]1C` (stereo not given in full) [Nanchangmycin]: the “AC50 for growth inhibition (log10 M)” value is -6.68 in the experiment on SB.msgc-1 and -6.83 in the experiment with SB.mhdgc-1.

Regarding `CC(C)=CCC/C(C)=C/CC/C(C)=C/CSc1ccccc1C(=O)O` [Salirasib], the “AC50 for growth inhibition (log10 M)” value is -5.58 in the experiment on SB.msgc-1 and -6.43 in the experiment on SB.mhdgc-1.

For the molecule `Cc1cc2c(F)c(Oc3ncnn4cc(OC[C@@H](C)O)c(C)c34)ccc2[nH]1` [Brivanib], the entries for the “AC50 for growth inhibition (log10 M)” value with SB.msgc-1 and with SB.mhdgc-1 were -4.73 and -4.98, respectively.

As to `C[C@]\12CC[C@H](O)CC1=C/CC3C2CC[C@@]\4(C)C3C\C=C4[N]5C=NC6=C5C=CC=C6` (stereo not given in full) [Galeterone], the “AC50 for growth inhibition (log10 M)” value with SB.msgc-1 and in the experiment with SB.mhdgc-1 was -4.68 each time.

Regarding `COc1cc2c(cc1OC)[C@@H]1Cc3ccc(OC)c(OC)c3CN1CC2` [Rotundine], the entries for the “AC50 for growth inhibition (log10 M)” value in the experiment on SB.msgc-1 and in the experiment with SB.mhdgc-1 were -4.73 and -5.28, respectively.

For `Cc1c[nH]c(/C=C2\C(=O)Nc3ccccc32)c1CCC(=O)O` [SU-5402], the results for the “AC50 for growth inhibition (log10 M)” value in the experiment on SB.msgc-1 and in the experiment on SB.mhdgc-1 were -4.73 and -4.68, respectively.

As to `CC1=CC2=C(O1)C(=C3OC(=O)\C=C(C)/C3=C2)C` [Trioxsalen], the entries for the “AC50 for growth inhibition (log10 M)” value with SB.msgc-1 and with SB.mhdgc-1 were -4.93 and -5.38, respectively.

With `CNC(=O)[C@H](Cc1ccccc1)NC(=O)[C@H](CC(C)C)[C@H](CSc1cccs1)C(=O)NO` [Batimastat], the figures for the “AC50 for growth inhibition (log10 M)” value in the experiment on SB.msgc-1 and in the experiment on SB.mhdgc-1 were -4.93 and -4.68, respectively.

In the case of `Nc1ccc(C(=O)Nc2cccc(-c3nc(N4CCOCC4)c4oc5ncccc5c4n3)c2)cn1`, the “AC50 for growth inhibition (log10 M)” value in the experiment with SB.msgc-1 was -5.18; with SB.mhdgc-1, -5.38.

Regarding `C\C1=C\N([C@H]2C[C@H](N=[N+]=[N-])[C@@H](CO)O2)C(=O)NC1=O` [Zidovudine], the entries for the “AC50 for growth inhibition (log10 M)” value with SB.msgc-1 and in the experiment on SB.mhdgc-1 were -4.58 and -5.03, respectively.

For `Cl.Nc1ccn([C@@H]2O[C@H](CO)[C@@H](O)C2(F)F)c(=O)n1` [Gemcitabine], the “AC50 for growth inhibition (log10 M)” value was -7.53 in the experiment with SB.msgc-1 and -7.23 with SB.mhdgc-1.

As for `C#Cc1cccc(Nc2ncnc3cc(OCCOC)c(OCCO)cc23)c1` [OSI-420], the “AC50 for growth inhibition (log10 M)” value was -6.03 with SB.msgc-1 and -6.23 with SB.mhdgc-1.

Consider `Cc1nc(Nc2n[nH]c3c2CN(C(=O)N[C@H](CN(C)C)c2ccccc2)C3(C)C)c2sccc2n1`, for which the “AC50 for growth inhibition (log10 M)” value in the experiment on SB.msgc-1 was -6.53; in the experiment with SB.mhdgc-1, -5.98.

Take `Nc1nnc(-c2cccc(Cl)c2Cl)c(N)n1` [Lamotrigine]: the “AC50 for growth inhibition (log10 M)” value was -4.63 with SB.msgc-1 and -4.53 with SB.mhdgc-1.

In the case of `C[S+](=O)([O-])N1CCc2c(-c3cnc(N)nc3)nc(N3CCOCC3)nc21`, the “AC50 for growth inhibition (log10 M)” value is -6.43 in the experiment on SB.msgc-1 and -5.68 in the experiment on SB.mhdgc-1.

As to `Nc1nccc(-c2ccc3noc(-c4ccc(Cl)cc4)c3c2)n1` [Pim 1 inhibitor 2], the figures for the “AC50 for growth inhibition (log10 M)” value in the experiment on SB.msgc-1 and with SB.mhdgc-1 were -5.03 and -5.48, respectively.

On to `NC/1=N/C(=O)C2=C(N1)[N](C=N2)[C@@H]3C[C@H](O)[C@@H](CO)C3=C` [Entecavir], for which the “AC50 for growth inhibition (log10 M)” value was -5.28 in the experiment on SB.msgc-1 and -4.78 in the experiment with SB.mhdgc-1.

Turning to `CCN(CC)CCOc1ccc(Cc2ccccc2)cc1` [Tesmilifene hydrochloride], the “AC50 for growth inhibition (log10 M)” value was -5.18 in the experiment with SB.msgc-1 and -4.48 with SB.mhdgc-1.

Consider `Nc1n[nH]c2nnc(-c3c(-c4ccccc4)nn4ccccc34)cc12`, for which the “AC50 for growth inhibition (log10 M)” value with SB.msgc-1 was -5.23; with SB.mhdgc-1, -5.03.

On to `Cc1cnc(Nc2ccc(N3CCN(C)CC3)cc2)nc1Nc1cccc([S+](=O)([O-])NC(C)(C)C)c1`, for which the results for the “AC50 for growth inhibition (log10 M)” value in the experiment on SB.msgc-1 and with SB.mhdgc-1 were -4.98 and -5.33, respectively.

For the molecule `COc1ccc([S+](=O)([O-])N(C(C)=O)c2ccccc2/C=C/c2cc[n+]([O-])cc2)cc1` [IVX-214], the “AC50 for growth inhibition (log10 M)” value was -6.38 in the experiment on SB.msgc-1 and -6.53 in the experiment on SB.mhdgc-1.

Regarding `N[C@@H](Cc1ccc(N(CCCl)CCCl)cc1)C(=O)O` [Melphalan], the figures for the “AC50 for growth inhibition (log10 M)” value in the experiment with SB.msgc-1 and in the experiment on SB.mhdgc-1 were -5.83 and -6.08, respectively.

In the case of `CC(C)(C)c1nc(-c2cccc(N[S+](=O)([O-])c3c(F)cccc3F)c2F)c(-c2ccnc(N)n2)s1` [Dabrafenib], the entries for the “AC50 for growth inhibition (log10 M)” value in the experiment on SB.msgc-1 and with SB.mhdgc-1 were -4.88 and -4.73, respectively.

For `Cc1ccc(C(=O)Nc2cccc(C(F)(F)F)c2)cc1-c1ccc2nc(NCCN3CCOCC3)ncc2c1` [AMG-47a], the “AC50 for growth inhibition (log10 M)” value in the experiment with SB.msgc-1 is -5.03; in the experiment on SB.mhdgc-1, -5.28.

Take `CC[C@@]1([C@@H]2O[C@@H]([C@H]3O[C@@](O)(CO)[C@H](C)C[C@@H]3C)C[C@@H]2C)CC[C@H]([C@]2(C)CC[C@]3(C[C@H](O)[C@@H](C)[C@@H]([C@@H](C)[C@@H](OC)[C@H](C)C(=O)[O-])O3)O2)O1` [Monensin sodium salt]: the “AC50 for growth inhibition (log10 M)” value is -6.94 in the experiment on SB.msgc-1 and -6.99 in the experiment with SB.mhdgc-1.

Take `O=C(C=CC#Cc1cccc(N[S+](=O)([O-])c2ccccc2)c1)NO` [Oxamflatin]: the “AC50 for growth inhibition (log10 M)” value in the experiment with SB.msgc-1 was -5.58; in the experiment on SB.mhdgc-1, -5.28.

With `CC(/C=C/C(=O)NO)=C\[C@@H](C)C(=O)c1ccc(N(C)C)cc1` [Trichostatin A], the “AC50 for growth inhibition (log10 M)” value is -6.13 with SB.msgc-1 and -5.88 with SB.mhdgc-1.

`CC(C)CN(C[C@@H](O)[C@H](Cc1ccccc1)NC(=O)O[C@H]1CCOC1)[S+](=O)([O-])c1ccc(N)cc1` [Amprenavir]: the entries for the “AC50 for growth inhibition (log10 M)” value in the experiment with SB.msgc-1 and in the experiment on SB.mhdgc-1 were -5.63 and -6.03, respectively.

`C#CCC(Cc1cnc2nc(N)nc(N)c2n1)c1ccc(C(=O)N[C@@H](CCC(=O)O)C(=O)O)cc1` (stereo not given in full) [Pralatrexate]: the “AC50 for growth inhibition (log10 M)” value in the experiment with SB.msgc-1 is -7.28; with SB.mhdgc-1, -6.58.

With `O=C(OC)[C@]12CC[C@@]3(C)[C@]4(C)CC[C@H]5[C@@](C)(C)C(=O)C(=C[C@]5(C)C4=CC(=O)[C@@H]3[C@@H]2C[C@](C)(C)CC1)C#N` [Bardoxolone methyl], the “AC50 for growth inhibition (log10 M)” value with SB.msgc-1 was -6.33; in the experiment on SB.mhdgc-1, -6.28.

Take `COc1cc(C[C@@H](CO)[C@H](CO)Cc2ccc(O)c(OC)c2)ccc1O` [Secoisolariciresinol]: the “AC50 for growth inhibition (log10 M)” value with SB.msgc-1 was -6.63; in the experiment on SB.mhdgc-1, -6.38.

Consider `Cc1c(CCOc2ccc(C(=O)O)cc2)c2cc(Cl)ccc2n1C(c1ccccc1)c1ccccc1` [CDIBA], for which the “AC50 for growth inhibition (log10 M)” value with SB.msgc-1 is -4.98; in the experiment on SB.mhdgc-1 it was -4.73.

The values above are taken from the supplement of paper PMC5412046.
